In patent US20160212993A1, “ADJUVANT COMPOSITIONS” (SYNGENTA LIMITED, priority 2012, published 2016):

What was measured:
Type in all cases: in vivo
[1] = test system: Puccinia recondita f. Sp. Tritici; test: Puccinia recondita f. sp. tritici / wheat / curative (brown rust on wheat), PUCCTRZ/ff-cu; design: key: % disease control relative to untreated check plants; conditions: 0.20%, average of three replicates
Description: (§1) In general, active ingredient is formulated (SC, SL) and just before spraying the formulations are mixed with water and ultrasonically agitated in order to achieve homogeneous distribution. Spray solutions are made up in water. Adjuvants are added as tank mix to the spray solution just before application. Foliar application is at 200 L/ha in an application device spraying with a single nozzle (type Lechler) 60 cm above the plants. Preventative tests are performed as 1 or 2 day preventative applications, i.e. plants are treated with the compounds 1 or 2 days prior to artificial inoculation with fungal spores, whereas for curative tests the inoculation is carried out prior to application. A single evaluation of disease level is made 5 to 48 days after inoculation, depending on the pathosystem. Disease control relative to the untreated check plants is then calculated. In the following examples, all treatments were sprayed at […] spray volume in 10% isopropanol solution to normalise foliar retention: Azoxystrobin;—Quadris SC250, Isopyrazam;—SC250, Cyproconazole: —Alto SL100, Chlorothalonil; Bravo SC720
Puccinia recondita f. Sp. Tritici/Wheat/Curative (Brown Rust on Wheat)->PUCCTRZ/ff-cu-S:
2-week old wheat plants cv. Arina are inoculated by spraying them with a spore suspension two days before application. After an incubation period of 1 day at 20° C. and 95% rh followed by 1 day at 20° C. and 60% rh in a greenhouse, the inoculated test plants are sprayed in a spray chamber with the formulated test compound diluted in water. After additional incubation at 20° C./18° C. (day/night) and 60% rh in a greenhouse, the percentage leaf area covered by disease is assessed when an appropriate level of disease appears on untreated check plants (9-12 days after application).

[2] = test system: Puccinia recondita f. Sp. Tritici; test: Puccinia recondita f. sp. tritici / wheat / preventative (brown rust on wheat), PUCCTRZ/ff-pr; design: key: % disease control relative to untreated check; conditions: 0.20%, average of three replicates
Description: as §1
Puccinia recondita f. Sp. Tritici/Wheat/Preventative (Brown Rust on Wheat)->PUCCTRZ/ff-pr-S:
2-week old wheat plants cv. Arina are sprayed in a spray chamber with the formulated test compound diluted in water. The test plants are inoculated by spraying them with a spore suspension one day after application. After an incubation period of 1 day at 20° C. and 95% rh, the inoculated test plants are kept at 20° C./18° C. (day/night) and 60% rh in a greenhouse. The percentage leaf area covered by disease is assessed when an appropriate level of disease appears on untreated check plants (12-14 days after application).

[3] = test system: Mycosphaerella graminicola (Septoria tritici); test: Mycosphaerella graminicola (Septoria tritici) / wheat / preventative, SEPTTRZ/ff-pr; conditions: Table 3, adjuvant alone, 0.20%, average of three replicates
Description: as §1
Mycosphaerella graminicola (Septoria tritici)/Wheat/Preventative (Septoria tritici Leaf Spot on Wheat)->SEPTTRZ/ff-pr-S:
2-week old wheat plants cv. Riband are sprayed in a spray chamber with the formulated test compound diluted in water. The test plants are inoculated by spraying a spore suspension on them one day after application. After an incubation period of 1 day at 22° C./21° C. (day/night) and 95% rh, the inoculated test plants are kept at 22° C./21° C. (day/night) and 70% rh in a greenhouse. Percentage leaf area covered by disease was assessed and efficacy was calculated compare to untreated controls when an appropriate level of disease appears on untreated check plants (16-19 days after application).

Alternaria solani = Alternaria solani / tomato / preventative, ALTELYP/ff-pr; conditions: Table 4, adjuvant alone, 0.20%, average of three replicates
Description: as §1
Alternaria solani/Tomato/Preventative (Alternaria on Tomato)->ALTELYP/ff-pr-S:
4-week old tomato plants cv. Roter Gnom are sprayed in a spray chamber with the formulated test compound diluted in water. The test plants are inoculated by spraying them with a spore suspension two days after application. The inoculated test plants are incubated at 22/18° C. (day/night) and 95% rh in a greenhouse and the percentage leaf area covered by disease is assessed when an appropriate level of disease appears on untreated check plants (5-7 days after application).

Row | Molecule | PUCCTRZ/ff-cu, visual assessment of control ([1]; Table 1, adjuvant alone) | PUCCTRZ/ff-cu, visual assessment of control ([1]; Table 2, adjuvant alone) | PUCCTRZ/ff-pr, visual assessment of control ([2]; Table 1, adjuvant alone) | PUCCTRZ/ff-pr, visual assessment of control ([2]; Table 2, adjuvant alone) | PUCCTRZ/ff-pr, visual assessment of control ([2]; Table 3, adjuvant alone) | PUCCTRZ/ff-pr, visual assessment of control ([2]; Table 4, adjuvant alone) | SEPTTRZ/ff-pr, visual assessment of control [3] | ALTELYP/ff-pr, visual assessment of control (Alternaria solani)
1 | CCCCCCCC/C=C\CCCCCCCC(=O)OC [Methyl oleate, reference compound] | 0 | 0 | 0 | 0 | 0 | 0 | 0 | 0
2 | Nopol-5PO-7EO [Nopol-5PO-7EO (Rhodoclean EFC)] | 0 | 0 | 0 | 0 | 0 | 0 | 0 | 6
3 | Nopol-5PO-9EO [Nopol-5PO-9EO (Rhodoclean MSC)] | 0 | 0 | 0 | 0 | 0 | 0 | 15 | 0
4 | Nopol-5PO-25EO [Nopol-5PO-25EO (Rhodoclean 525)] | 0 | 0 | 0 | 0 | 0 | 0 | 7 | 2
